US20060239945A1, “Cleansing composition” (Conopco Inc, d/b/a UNILEVER, priority 2004, published 2006)

Experiments:
[1] = system: skin colour of human panelists' face; assay: Efficacy on skin-lightening, half-face cleanser use versus placebo cleanser; type: in vivo
Description: Thirty three human panelists are recruited who are required to use a known amount of the cleansing product on one half of their face. At the same time, the other half was rinsed with a placebo cleanser. Panelists were required to do this for eight weeks. The color of the skin is monitored at regular intervals by trained visual graders and instruments. A final assessment is made at eight weeks. The value for skin-lightening indicated is in comparison to the placebo effect.

human skin = assay: Skin delivery of resorcinol from product applied to human volunteer forearms; type: in vivo; settings: for Skin Delivery of ER: 2.5% ER, pH 6.5, percentage of initial dose after rinse
Description: Delivery of resorcinol on human skin was assessed through direct application of product to human volunteer forearms. A known dose of the product was applied to the area, and the product was rubbed into the area. The area on the arm was rinsed with a fixed amount of water. The collected rinse liquor was analyzed for resorcinol, and the amount delivered to skin was calculated by subtracting from the dosage applied. This is expressed as a percentage of the initial dose.

[2] = Product stability by visual assessment of color and homogeneity after storage; type: physicochemical; settings: for Color Stability of ER / Color Stability / Homogeneity: 2.5% ER; for Color Stability / Homogeneity: 3 months at ~25° C., visual
Description: Stability of product is evaluated after a storage period of 3 months at ˜25° C. by visual measurement to assess color and homogeneity of product.

[3] = liquid cleanser with 7% neutralised fatty acid (C18/C14/C12 mix), pH 9.2
[4] = liquid cleanser with 7% sodium lauryl sulphate, pH 6.5

## CCc1ccc(O)cc1O [4 ethyl resorcinol]
[1]; cleanser with SLES (3EO) 6.8%, coca amido propyl betaine 2.2%, 2.5% ER, pH 6.5, eight weeks, in comparison to placebo effect
  Efficacy on skin-lightening: −0.7
[1]; through a cleansing system with anionic and amphoteric surfactant
  skin colour (lightening): significantly improves skin colour
Human skin; anionic and amphoteric surfactant, or in combination with a nonionic surfactant
  delivery of 4 ethyl resorcinol from the formulation on the skin: significant delivery
Human skin; cleanser with SLES (3EO) 4.5%, coca amido propyl betaine 1.47%, decyl polyglucoside 1.5%
  Skin Delivery of ER: 12.4%
Human skin; cleanser with SLES (3EO) 6.8%, coca amido propyl betaine 2.2%
  Skin Delivery of ER: 7.7%
[2]; cleanser with SLES (3EO) 4.5%, coca amido propyl betaine 1.47%, decyl polyglucoside (HLB 13-15) 1.5%, pH 6.5
  Color Stability of ER: Good
[2]; cleanser with SLES (3EO) 6.8%, coca amido propyl betaine 2.2%, pH 6.5
  Color Stability of ER: Good
[2]; [3]
  Color Stability: Dark brown
  Homogeneity: Small precipitate
[2]; [4]
  Color Stability: Good
  Homogeneity: Good
[2]; pH of the formulation below 7.5
  stability of 4 ethyl resorcinol in the formulation: good
